Numbering of substitutions follows the chain as printed.
Experiments:
Test in all cases: Influence of CL on the enzyme activity
Assay type in all cases: biochemical
Settings in all cases: for Maximal Enzymatic Activity: w/o CL = 100
[1] = target: T1, CPT II WT (Homo sapiens, UniProt P23786)
T1 construct: made in house; host or cells: Escherichia coli BL21Gold DE
T1 sequence (P23786 26-658): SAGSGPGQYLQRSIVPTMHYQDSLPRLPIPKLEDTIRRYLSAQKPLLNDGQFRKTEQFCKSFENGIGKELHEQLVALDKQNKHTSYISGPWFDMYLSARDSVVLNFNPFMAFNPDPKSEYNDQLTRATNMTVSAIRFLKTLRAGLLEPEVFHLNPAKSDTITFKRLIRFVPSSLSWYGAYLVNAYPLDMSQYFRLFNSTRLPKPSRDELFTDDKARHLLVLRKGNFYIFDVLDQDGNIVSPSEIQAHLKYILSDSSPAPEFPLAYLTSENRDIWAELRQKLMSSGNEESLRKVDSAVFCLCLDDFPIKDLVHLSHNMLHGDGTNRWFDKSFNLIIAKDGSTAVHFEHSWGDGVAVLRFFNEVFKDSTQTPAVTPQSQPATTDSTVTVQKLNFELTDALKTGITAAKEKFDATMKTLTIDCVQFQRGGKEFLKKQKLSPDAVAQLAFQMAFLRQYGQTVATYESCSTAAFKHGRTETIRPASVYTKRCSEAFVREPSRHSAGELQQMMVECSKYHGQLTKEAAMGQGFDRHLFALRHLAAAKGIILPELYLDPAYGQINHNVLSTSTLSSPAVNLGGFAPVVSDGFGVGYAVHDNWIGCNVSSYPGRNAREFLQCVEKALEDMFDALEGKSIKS
Procedure: (§1) Then, the effect of CL, as a potential stabilizing agent, was investigated in the activity assay. Therefore, 0.1 mg/mL recombinant enzyme was incubated with various concentrations of CL (0.125, 0.25 or 0.5 mM) or buffer at 30 and 42 °C, respectively.
(§2) Before activity measurements, the storage buffer of the enzymes was replaced with assay buffer (50 mM KH2PO4, 120 mM KCl, 1 mM EDTA-Na4) using vivaspin turbo 4 tubes (Satorius Stedim biotech GmbH, Göttingen, Germany) at 4 °C. The pH of assay buffer was adjusted with KOH to 7.4. The storage buffer was diluted at least 1:500 in assay buffer. In addition, before each experimental set up, the protein samples were centrifuged at 16,000× g for 5 min at 4 °C to remove any micro-aggregates. After that, the protein concentration was determined using bicinchoninic acid (BCA) protein assay kit (Thermo Fisher Scientific GmbH, Berlin, Germany). The enzyme activity of recombinant CPT II was performed following Rufer et al. with modifications described elsewhere. […] After pre-conditioning the mixture to 25 °C for 2 min, the reaction was started by adding 15 nM of recombinant enzyme. The reverse reaction of CPT II was detected with the enzyme activity assay. CPT II catalyzed the transfer of fatty acid residue from Pal-CoA to L-carnitine with release of CoA and Pal-carnitine. The released CoA was then detected by the reaction of the free thiol group with DTNB, forming 5-mercapto-(2-nitrobenzoic acid). This compound has a molar extinction coefficient of 13,600 M^−1 cm^−1 at a wavelength of 410 nm, and its formation was followed spectroscopically. […] The slope of the progress curve was used to determine the reaction velocity.
(§3) The purified enzymes were incubated at different temperatures (30, 37, 40 and 42 °C) using a protein concentration of 1 mg/mL during the incubation periods to investigated the half-lives of WT and variants. 0.1 mg/mL enzyme was incubated with or without CL (0.125, 0.25 and 0.5 mM) in the assay buffer. The enzyme activities were determined by adding 15 nM of pre-incubated enzyme according to Section 4.3 after various incubation times up to 60 min at an assay temperature of 25 °C. Experiments were done at least three times independently as double determination.

[2] = target: T2, CPT II variant P50H (Homo sapiens, UniProt P23786, P50H)
T2 construct: made in house; host or cells: Escherichia coli BL21Gold DE
T2 sequence (P23786 26-658 P50H): T1 sequence (P23786 26-658) with P25H
Procedure: as §1, §2, §3

[3] = target: T3, CPT II variant S113L (Homo sapiens, UniProt P23786, S113L)
T3 construct: made in house; host or cells: Escherichia coli BL21Gold DE
T3 sequence (P23786 26-658 S113L): T1 sequence (P23786 26-658) with S88L
Procedure: as §1, §2, §3

Increase of the enzymatic activity by CL [1]: 1.5 fold
Maximal Enzymatic Activity ([1]; 0.25 mM CL): 152.3 ± 5.5%
Maximal Enzymatic Activity ([1]; 0.5 mM CL): 135.9 ± 4.7%
Enzymatic activity in the presence of CL ([1]; 0.25 and 0.5 mM CL, before incubation periods): up to 150%
Increase of the enzymatic activity by CL [2]: marginal effect
Maximal Enzymatic Activity ([2]; 0.25 mM CL): 113.0 ± 7.6%
Maximal Enzymatic Activity ([2]; 0.5 mM CL): 94.5 ± 6.4%
Enzymatic activity in the presence of CL ([2]; before incubation periods): 113%
Effect of CL on maintenance of enzyme activity ([2]; incubation at 42 °C): almost no effect
Increase of the enzymatic activity by CL [3]: marginal effect
Maximal Enzymatic Activity ([3]; 0.25 mM CL): 114.5 ± 8.3%
Maximal Enzymatic Activity ([3]; 0.5 mM CL): 98.7 ± 5.1%
Enzymatic activity in the presence of CL ([3]; before incubation periods): 115%
Substance: Cardiolipin [CL]
